Key:
[1] = system: Ba/F3-Flt3-transfected cells; test: Ba/F3-Flt3 (minus IL3 or plus IL3) cellular proliferation assay; assay type: cell-based; conditions: plus 10 ng/ml murine IL3 (counterscreen); for IC50: 24 h, read-out: BAF3_FLT3 (PLUS IL3) pIC50 (converted)
Description: (§1) Ba/F3-Flt3 (Minus IL3 or Plus IL3) (Cellular Proliferation Assay)
(§2) In a 384 well plate, 100 nl of compound dilution in DMSO was sprayed before adding 50 μl cell culture medium (phenol red free RPMI-1640, 10% FBS, 2 mM L-Glutamine and 50 μg/ml Gentamycin) containing 20000 cells per well of Ba/F3-Flt3-transfected cells. Cells were put in an incubator at 37° C. and 5% CO2. After 24 hours, 10 μl of Alamar Blue solution (0.5 mM K3Fe(CN)6, 0.5 mM K4Fe(CN)6, 0.15 mM Resazurin and 100 mM Phosphate Buffer) was added to the wells, incubated for 4 hours at 37° C. and 5% CO2 before RFU's (Relative Fluorescence Units) (ex. 540 nm., em. 590 nm.) were measured in a fluororescence plate reader.
(§3) In this assay, the inhibitory effect of different compound concentrations (range 10 μM to 0.1 nM) was determined and used to calculate an IC50 (M) and pIC50 (−log IC50) value.
(§4) As a counterscreen the same experiment was performed in the presence of 10 ng/ml murine IL3.

[2] = biological target: T1, Ba/F3-Flt3-transfected cells (Homo sapiens, UniProt P36888, cells depend on it, form not given); test: as above; assay type: cell-based; conditions: minus IL3
T1 construct: BAF3-FLT3 (MIN IL3) pIC50; other: minus IL3
T1 sequence (P36888 1-993): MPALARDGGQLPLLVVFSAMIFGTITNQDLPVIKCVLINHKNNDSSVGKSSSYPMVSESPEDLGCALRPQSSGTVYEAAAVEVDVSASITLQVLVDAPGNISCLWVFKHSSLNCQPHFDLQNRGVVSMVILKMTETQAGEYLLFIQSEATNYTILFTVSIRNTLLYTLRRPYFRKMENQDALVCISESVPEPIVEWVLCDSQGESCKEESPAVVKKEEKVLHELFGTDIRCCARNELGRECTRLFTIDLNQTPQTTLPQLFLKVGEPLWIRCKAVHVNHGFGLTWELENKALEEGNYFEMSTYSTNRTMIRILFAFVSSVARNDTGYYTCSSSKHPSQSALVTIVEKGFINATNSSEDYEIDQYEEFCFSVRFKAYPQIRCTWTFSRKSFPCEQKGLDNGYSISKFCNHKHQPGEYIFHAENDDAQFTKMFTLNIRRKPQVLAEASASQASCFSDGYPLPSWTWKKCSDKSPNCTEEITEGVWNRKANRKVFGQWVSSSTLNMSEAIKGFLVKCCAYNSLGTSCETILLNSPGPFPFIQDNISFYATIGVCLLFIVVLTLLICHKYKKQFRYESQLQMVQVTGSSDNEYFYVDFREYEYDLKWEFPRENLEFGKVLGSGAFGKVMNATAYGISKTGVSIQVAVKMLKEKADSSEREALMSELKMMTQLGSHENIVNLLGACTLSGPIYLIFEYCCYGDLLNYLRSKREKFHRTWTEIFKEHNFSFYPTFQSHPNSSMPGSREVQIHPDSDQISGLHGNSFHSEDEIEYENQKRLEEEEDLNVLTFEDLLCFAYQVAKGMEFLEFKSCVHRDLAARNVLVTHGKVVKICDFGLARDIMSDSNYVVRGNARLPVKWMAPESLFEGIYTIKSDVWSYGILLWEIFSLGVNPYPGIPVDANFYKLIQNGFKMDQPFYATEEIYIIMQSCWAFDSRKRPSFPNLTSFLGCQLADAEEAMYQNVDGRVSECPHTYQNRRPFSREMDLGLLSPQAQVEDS
Description: as §1, §2, §3, §4

KDR (h) (VEGFR2) = KDR (h) (VEGFR2) (Homo sapiens, UniProt P35968); test: KDR (VEGFR2) (enzymatic assay), TR-FRET; assay type: biochemical; conditions: 3 μM ATP; for IC50: read-out: VEGFR2 (KDR) pIC50 (converted)
Description: KDR (VEGFR2) (Enzymatic Assay)
(§5) In a final reaction volume of 30 μL, KDR (h) (150 ng/ml) was incubated with 50 mM HEPES pH 7.5, 6 mM MnCl2, 1 mM DTT, 0.1 mM Na3VO4, 0.01% Triton-X-100, 500 nM Btn-Flt3 and 3 μM ATP in the presence of compound (1% DMSO final). After incubation for 120 minutes at room temperature the reaction was stopped with 2.27 nM EU-anti P-Tyr, 7 mM EDTA, 31.25 nM SA-XL-665 and 0.02% BSA which was present for 60 minutes at room temperature. Time-Resolved Fluorescence Resonance Energy Transfer (TR-FRET) signal (ex340 nm. Em 620 nm, em 655 nm) was measured afterwards and results are expressed in RFU (Relative Fluorescence Units). In this assay, the inhibitory effect of different compound concentrations (range 10 μM to 0.1 nM) was determined and used to calculate an IC50 (M) and pIC50 (−log IC50) value.

FGFR2 (h) = FGFR2 (h) (Homo sapiens, UniProt P21802); test: FGFR2 (enzymatic assay), TR-FRET; assay type: biochemical; conditions: 0.4 μM ATP; read-out: FGFR2 pIC50 (converted)
Description: as §5, with “μL, FGFR2” for “μL, KDR”, “and 0.4” for “and 3”, “for 60” for “for 120”, “in” for “in RFU”

Chain of FGFR2 (h) (P21802 22-821): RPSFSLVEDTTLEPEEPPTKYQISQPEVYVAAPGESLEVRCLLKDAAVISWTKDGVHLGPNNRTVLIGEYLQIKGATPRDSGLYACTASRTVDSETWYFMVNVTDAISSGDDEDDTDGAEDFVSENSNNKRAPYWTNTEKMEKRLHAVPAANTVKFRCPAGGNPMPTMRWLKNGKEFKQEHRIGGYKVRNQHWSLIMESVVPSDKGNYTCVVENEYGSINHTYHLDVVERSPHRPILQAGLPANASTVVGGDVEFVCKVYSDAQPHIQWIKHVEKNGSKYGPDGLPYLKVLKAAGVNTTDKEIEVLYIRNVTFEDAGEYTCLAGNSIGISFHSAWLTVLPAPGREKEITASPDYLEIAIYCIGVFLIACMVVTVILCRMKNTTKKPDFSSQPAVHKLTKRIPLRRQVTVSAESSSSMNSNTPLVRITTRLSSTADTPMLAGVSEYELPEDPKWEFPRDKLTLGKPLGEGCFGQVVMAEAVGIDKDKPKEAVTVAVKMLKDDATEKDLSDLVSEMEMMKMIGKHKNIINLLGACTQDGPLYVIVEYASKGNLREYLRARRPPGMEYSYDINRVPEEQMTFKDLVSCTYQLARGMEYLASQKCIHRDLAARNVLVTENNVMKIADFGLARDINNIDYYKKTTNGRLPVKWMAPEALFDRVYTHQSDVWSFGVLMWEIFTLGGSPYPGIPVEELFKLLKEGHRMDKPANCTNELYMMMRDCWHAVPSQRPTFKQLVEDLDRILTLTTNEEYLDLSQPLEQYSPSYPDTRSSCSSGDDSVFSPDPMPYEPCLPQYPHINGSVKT
Chain of KDR (h) (VEGFR2) (P35968 20-1356): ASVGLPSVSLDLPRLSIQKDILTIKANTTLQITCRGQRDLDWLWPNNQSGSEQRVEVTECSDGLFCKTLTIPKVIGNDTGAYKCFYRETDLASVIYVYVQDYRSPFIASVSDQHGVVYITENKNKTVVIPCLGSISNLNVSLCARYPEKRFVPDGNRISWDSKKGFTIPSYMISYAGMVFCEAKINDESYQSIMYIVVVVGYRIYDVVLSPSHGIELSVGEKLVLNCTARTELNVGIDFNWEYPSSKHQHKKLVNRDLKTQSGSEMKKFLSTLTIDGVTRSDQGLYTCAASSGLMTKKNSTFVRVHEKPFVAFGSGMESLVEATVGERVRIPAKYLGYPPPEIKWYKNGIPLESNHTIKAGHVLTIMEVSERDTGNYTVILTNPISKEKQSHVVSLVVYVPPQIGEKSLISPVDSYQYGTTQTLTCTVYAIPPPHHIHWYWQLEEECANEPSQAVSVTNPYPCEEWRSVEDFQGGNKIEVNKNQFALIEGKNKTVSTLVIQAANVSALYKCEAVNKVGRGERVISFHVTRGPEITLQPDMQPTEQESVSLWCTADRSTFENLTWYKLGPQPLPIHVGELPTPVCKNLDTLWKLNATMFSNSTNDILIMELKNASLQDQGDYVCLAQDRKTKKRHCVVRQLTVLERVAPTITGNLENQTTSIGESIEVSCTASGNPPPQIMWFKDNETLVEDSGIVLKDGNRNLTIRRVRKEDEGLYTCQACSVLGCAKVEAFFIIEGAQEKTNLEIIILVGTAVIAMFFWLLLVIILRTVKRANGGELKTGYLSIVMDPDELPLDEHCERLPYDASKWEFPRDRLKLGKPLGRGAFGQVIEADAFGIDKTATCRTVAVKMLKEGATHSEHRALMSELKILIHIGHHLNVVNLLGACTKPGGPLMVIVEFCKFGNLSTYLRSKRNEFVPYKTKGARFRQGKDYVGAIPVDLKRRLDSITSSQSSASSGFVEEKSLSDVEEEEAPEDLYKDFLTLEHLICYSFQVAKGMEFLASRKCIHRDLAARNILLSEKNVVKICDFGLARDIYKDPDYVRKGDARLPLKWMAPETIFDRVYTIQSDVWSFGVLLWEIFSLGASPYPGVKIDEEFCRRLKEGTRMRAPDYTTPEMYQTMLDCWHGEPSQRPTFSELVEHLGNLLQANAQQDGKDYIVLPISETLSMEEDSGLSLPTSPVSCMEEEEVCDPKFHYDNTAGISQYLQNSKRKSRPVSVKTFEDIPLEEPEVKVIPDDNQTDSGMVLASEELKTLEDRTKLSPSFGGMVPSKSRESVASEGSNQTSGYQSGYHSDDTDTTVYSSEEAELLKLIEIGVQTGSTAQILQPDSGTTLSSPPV

Row | Compound | BAF3-FLT3 (MIN IL3) pIC50 [2] | IC50 (KDR (h) (VEGFR2)) [µM] | IC50 (FGFR2 (h)) [µM] | VEGFR2 (KDR) pIC50 (KDR (h) (VEGFR2)) | IC50 [1] [µM] | BAF3_FLT3 (PLUS IL3) pIC50 [1]
1 | CN(C)CCC(c1ccccc1)c1ccc2ncc(-c3cnn(C)c3)nc2c1 (centres unmarked) [Compound 35] | <5 | > 1 | > 1 | – | > 10 | –
2 | CNCC(O)(c1cc(OC)cc(OC)c1)c1ccc2ncc(-c3cnn(C)c3)nc2c1.Cl (single isomer, unassigned) [Compound 38] | <5 | – | > 1 | <6 | – | <5
3 | COc1cc(OC)cc(C(CCN)c2ccc3ncc(-c4cnn(C)c4)nc3c2)c1.Cl (centres unmarked) [Compound 20] | <5 | 4.68 | 0.0676 | – | > 10 | –

The next lines start with results.

Row | BAF3-FLT3 (MIN IL3) pIC50 [2] | IC50 (KDR (h) (VEGFR2)) [µM] | IC50 (FGFR2 (h)) [µM] | VEGFR2 (KDR) pIC50 (KDR (h) (VEGFR2)) | Compound | IC50 [1] [µM] | BAF3_FLT3 (PLUS IL3) pIC50 [1]
4 | <5 | 0.562 | ~1 | – | COc1cc(OC)cc(C(CC(C)(O)CNC(C)C)c2ccc3ncc(-c4cnn(C)c4)nc3c2)c1.Cl (centres unmarked) [Compound 25] | > 10 | –
5 | <5 | > 1 | 0.0178 | – | COc1cc(OC)cc(C(CCNC(C)C)c2ccc3ncc(-c4cnn(C)c4)nc3c2)c1 (single isomer, unassigned) [Compound 19a] | > 10 | –

From patent US9290478B2, “Substituted quinoxalines as FGFR kinase inhibitors” (ASTEX THERAPEUTICS LTD, priority 2010, dated 2016)
